Results reported in ChEMBL document CHEMBL1201862, “PubChem BioAssay data set” (2004).
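Growth conditions: 96-well plates. Treatment: test compound, 48 hours, 5 concentrations. Analysis: linear interpolation between bracketing concentrations; unreached endpoints set to highest concentration. Here, GI50 denotes the concentration required for 50% inhibition of growth.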 Active and inactive are the calls of the source. Cut-off read from the data, not from the text of the source: active = GI50 up to about 1.1 µM and inactive = higher.

Legend:
Assay in all cases: NCI-60 cell line screen, 48 h
PC-3 = system: PC-3
LOX IMVI = system: LOX IMVI
NCI-H522 = system: NCI-H522
BT-549 = system: BT-549
MDA-MB-435 = system: MDA-MB-435
EKVX = system: EKVX
NCI-H226 = system: NCI-H226
SK-OV-3 = system: SK-OV-3
HL-60 = system: HL-60
NCI-H460 = system: NCI-H460
DU-145 = system: DU-145
KM12 = system: KM12
HCT-15 = system: HCT-15
Hs-578T = system: Hs-578T
Malme-3M = system: Malme-3M
HOP-62 = system: HOP-62
SNB-19 = system: SNB-19
RXF 393 = system: RXF 393
SF-268 = system: SF-268
SF-539 = system: SF-539

Row | SMILES | GI50 (PC-3) | GI50 (LOX IMVI) | GI50 (NCI-H522) | GI50 (BT-549) | GI50 (MDA-MB-435) | GI50 (EKVX) | GI50 (NCI-H226) | GI50 (SK-OV-3) | GI50 (HL-60) | GI50 (NCI-H460) | GI50 (DU-145) | GI50 (KM12) | GI50 (HCT-15) | GI50 (Hs-578T) | GI50 (Malme-3M) | GI50 (HOP-62) | GI50 (SNB-19) | GI50 (RXF 393) | GI50 (SF-268) | GI50 (SF-539)
1 | CC(NC1=CC(=O)c2ncccc2C1=O)C(O)c1ccccc1 (stereo not given) | 12.1 µM (inactive) | 1.8 µM (inactive) | 7.66 µM (inactive) | 1.85 µM (inactive) | 1.59 µM (inactive) | 12.6 µM (inactive) | 5.55 µM (inactive) | 16.1 µM (inactive) | 3.44 µM (inactive) | 1.28 µM (inactive) | 6.22 µM (inactive) | 7.67 µM (inactive) | 3.91 µM | 4.2 µM (inactive) | 1.89 µM (inactive) | 4.83 µM (inactive) | 6.35 µM (inactive) | 7.76 µM (inactive) | 12.2 µM (inactive) | 6.04 µM (inactive)
2 | COc1nc(N)c(/N=C/C(OC(C)=O)C(OC(C)=O)C(COC(C)=O)OC(C)=O)c(=O)n1C (stereo not given) | > 100 µM (inactive) | > 100 µM (inactive) | > 100 µM (inactive) | > 100 µM (inactive) | > 100 µM (inactive) | > 100 µM (inactive) | > 100 µM (inactive) | > 100 µM (inactive) | > 100 µM (inactive) | > 100 µM (inactive) | > 100 µM (inactive) | > 100 µM (inactive) | > 100 µM | > 100 µM (inactive) | > 100 µM (inactive) | > 100 µM (inactive) | > 100 µM (inactive) | > 100 µM (inactive) | > 100 µM (inactive) | > 100 µM (inactive)
3 | CN(CCCNC(=O)c1c2ccc3ccccc3c2nn1C)CCCNC(=O)c1c2ccc3ccccc3c2nn1C | 12.4 µM (inactive) | 3.15 µM (inactive) | 7.35 µM (inactive) | 10.6 µM (inactive) | 2.29 µM (inactive) | 9.14 µM (inactive) | 15.1 µM (inactive) | 15 µM (inactive) | 10.4 µM (inactive) | 4.52 µM (inactive) | 17.5 µM (inactive) | 8.13 µM (inactive) | 6.93 µM | 14.2 µM (inactive) | 3.03 µM (inactive) | 14.8 µM (inactive) | 14.9 µM (inactive) | 5.94 µM (inactive) | 11.5 µM (inactive) | 6.24 µM (inactive)
4 | Nc1nc(N)c(N=Nc2ccc([As](=O)(O)O)c(O)c2)c(N)n1 | 22.7 µM (inactive) | 6.67 µM (inactive) | 3.5 µM (inactive) | 32.4 µM (inactive) | 0.82 µM (active) | > 63.5 µM (inactive) | > 100 µM (inactive) | 36.4 µM (inactive) | 2.96 µM (inactive) | 6.12 µM (inactive) | 7.5 µM (inactive) | 28.8 µM (inactive) | 37.6 µM | 13 µM (inactive) | 79.1 µM (inactive) | 8.59 µM (inactive) | 43.2 µM (inactive) | 7.48 µM (inactive) | 55.8 µM (inactive) | 17.1 µM (inactive)
5 | COC(=O)c1sc(C(=O)OC)c2c1CSC2 | > 100 µM (inactive) | > 94.6 µM (inactive) | 76.2 µM (inactive) | > 100 µM (inactive) | > 100 µM (inactive) | > 100 µM (inactive) | > 70.6 µM (inactive) | > 100 µM (inactive) | > 100 µM (inactive) | > 100 µM (inactive) | > 100 µM (inactive) | > 100 µM (inactive) | > 91.2 µM | 97.9 µM (inactive) | > 100 µM (inactive) | 47.6 µM (inactive) | 51.8 µM (inactive) | 47.5 µM (inactive) | 54.1 µM (inactive) | 53.3 µM (inactive)
6 | N#CC1=C(N)OC2=C(CCCc3ccccc32)C1c1ccc([N+](=O)[O-])cc1 (stereo not given) | 17.1 µM (inactive) | 19.1 µM (inactive) | 8.22 µM (inactive) | 2.91 µM (inactive) | 15.9 µM (inactive) | 13.8 µM (inactive) | 24.7 µM (inactive) | 30.9 µM (inactive) | 5.93 µM (inactive) | 17.7 µM (inactive) | 10.1 µM (inactive) | 16.1 µM (inactive) | 12.2 µM | 36.5 µM (inactive) | 16.3 µM (inactive) | 17.2 µM (inactive) | 17.3 µM (inactive) | 13.2 µM (inactive) | 15.1 µM (inactive) | 19.2 µM (inactive)
7 | CC(=O)c1c(C)cc2cccc(OC3OC(CO)C(O)C(O)C3O)c2c1O.CC1OC(O)C(O)C(O)C1O (stereo not given) | > 100 µM (inactive) | > 100 µM (inactive) | > 100 µM (inactive) | > 100 µM (inactive) | > 100 µM (inactive) | > 100 µM (inactive) | > 100 µM (inactive) | > 100 µM (inactive) | > 100 µM (inactive) | > 100 µM (inactive) | > 100 µM (inactive) | > 100 µM (inactive) | > 100 µM | > 100 µM (inactive) | > 100 µM (inactive) | > 100 µM (inactive) | > 100 µM (inactive) | > 100 µM (inactive) | > 100 µM (inactive) | > 100 µM (inactive)
8 | CC(C)[Si]1(C(C)C)OCC2OC(n3cnc4c(N)ncnc43)C(N)C2O[Si](C(C)C)(C(C)C)O1 (stereo not given) | 3.16 µM (inactive) | 5.75 µM (inactive) | 8.04 µM (inactive) | 6.41 µM (inactive) | 6.75 µM (inactive) | 17.7 µM (inactive) | 9.66 µM (inactive) | 24 µM (inactive) | 3.78 µM (inactive) | 4.07 µM (inactive) | 11.9 µM (inactive) | 4.1 µM (inactive) | 6.9 µM | 11.8 µM (inactive) | 17.8 µM (inactive) | 17.2 µM (inactive) | 4.88 µM (inactive) | 8.97 µM (inactive) | 12 µM (inactive) | 11.6 µM (inactive)
9 | O=C1N2CCC[C@H]2CS1(=O)=O | 16.5 µM (inactive) | 11.3 µM (inactive) | 5.66 µM (inactive) | 14.8 µM (inactive) | 17.1 µM (inactive) | 22 µM (inactive) | 25.4 µM (inactive) | 36.6 µM (inactive) | 19.1 µM (inactive) | 32.7 µM (inactive) | 17.9 µM (inactive) | 16.6 µM (inactive) | 12.6 µM | 55.1 µM (inactive) | 13.2 µM (inactive) | 16.1 µM (inactive) | 35.9 µM (inactive) | 7.36 µM (inactive) | 20.7 µM (inactive) | 29.5 µM (inactive)
10 | O=c1cc(-c2ccccc2)oc2c(-c3cc(Cl)cc4c(=O)cc(-c5ccccc5)oc34)cc(Cl)cc12 | 7.87 µM (inactive) | 11.3 µM (inactive) | 14.1 µM (inactive) | 29.6 µM (inactive) | 26.5 µM (inactive) | 22.2 µM (inactive) | 21.5 µM (inactive) | 16.7 µM (inactive) | 50.1 µM (inactive) | 22.6 µM (inactive) | 36.3 µM (inactive) | 20 µM (inactive) | 29.5 µM | 15.3 µM (inactive) | 27 µM (inactive) | 31 µM (inactive) | 29.4 µM (inactive) | 26.2 µM (inactive) | 32.8 µM (inactive) | 17.8 µM (inactive)
